We go through 10 compounds from ChEMBL document CHEMBL1201862, “PubChem BioAssay data set” (2004).

As a reminder, the GI50 is the concentration giving 50% growth inhibition.

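Five concentrations, 48 hours, 96-well plates. GI50 marks 50% less growth.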 The source made the active and inactive calls. Rule as the data show it: active = GI50 up to about 1.1 µM and inactive = higher. Some results are limits rather than exact numbers.

Test systems include UACC-257; OVCAR-8; K562; T47D; Malme-3M; ACHN; PC-3; MOLT-4; NCI-H522; TK-10; KM12; HL-60; HOP-92; HOP-62; OVCAR-5; CAKI-1; LOX IMVI; HCT-116; RXF 393; SK-OV-3.
Common to all, as to experiment: DTP human tumour cell line panel, 48 h

As to `NC(Cc1ccccc1)P(=O)(O)O` (centres undefined), the GI50 in the test with UACC-257, with OVCAR-8, in the test with K562, in the test on T47D, in the test with Malme-3M and in the test on ACHN was > 100 µM (inactive) each time. The GI50 in the test on PC-3, in the test with MOLT-4, in the test with NCI-H522, in the test on TK-10, in the test with KM12 and with HL-60 was > 100 µM (inactive) in each case. The GI50 in the test on HOP-92, in the test with HOP-62, in the test on OVCAR-5, in the test with CAKI-1, with LOX IMVI and in the test on HCT-116 was > 100 µM (inactive) throughout. Besides, the GI50 with RXF 393 was > 100 µM (inactive).
Regarding `CC1OC(OC2C(O[C@H]3CC[C@@]4(C)C(=CC[C@H]5[C@@H]6C[C@@H]7O[C@]8(CC[C@@H](C)CO8)[C@@H](C)[C@@H]7[C@@]6(C)CC[C@@H]54)C3)OC(CO)C(O)C2OC2OC(CO)C(O)C(O)C2O)C(O)C(O)C1O` (some centres undefined), the GI50 in the test on UACC-257 is 1.86 µM (inactive); in the test with OVCAR-8, 3.19 µM (inactive); in the test on K562, 14.4 µM (inactive); with T47D, 2.31 µM (inactive); in the test with Malme-3M, 1.69 µM (inactive); in the test with ACHN, 1.8 µM (inactive). In addition, the GI50 is 1.87 µM (inactive) in the test with PC-3; 1.86 µM (inactive) with NCI-H522; 1.93 µM (inactive) with TK-10; 2.21 µM (inactive) in the test on KM12; 3.35 µM (inactive) in the test on HL-60; 1.79 µM (inactive) with HOP-92. Further, the GI50 was 2.22 µM (inactive) in the test with HOP-62; 13 µM (inactive) in the test on OVCAR-5; 3.5 µM (inactive) with CAKI-1; 2.38 µM (inactive) with LOX IMVI; 2.58 µM (inactive) in the test on HCT-116; 2.17 µM (inactive) in the test on RXF 393. Besides, the GI50 in the test with SK-OV-3 was 1.8 µM (inactive).
For `O[C@@H]1C[C@@H]2N[C@@](O)(C[C@@H]2O)[C@H]1O`, the GI50 with UACC-257, in the test on OVCAR-8, with K562, with T47D, in the test on Malme-3M and in the test on ACHN was > 100 µM (inactive) throughout. In addition, the GI50 in the test on PC-3, with MOLT-4, in the test with NCI-H522, in the test with TK-10, with KM12 and in the test on HL-60 was > 100 µM (inactive) each time. The GI50 in the test on HOP-92, in the test on HOP-62, in the test with OVCAR-5, with LOX IMVI, in the test on HCT-116 and in the test on RXF 393 was > 100 µM (inactive) throughout. The GI50 with SK-OV-3 was > 100 µM (inactive).
For the compound `CCCN(CCC)C(=O)c1c(N2CCN(C)CC2)c2cccnc2n2c(C)cnc12`, the GI50 with UACC-257 was > 100 µM (inactive); with OVCAR-8, > 100 µM (inactive); with K562, > 100 µM (inactive); with T47D, 14.8 µM (inactive); with Malme-3M, > 100 µM (inactive); in the test on ACHN it was > 100 µM (inactive). The GI50 with PC-3 is > 100 µM (inactive); in the test on MOLT-4, 85.9 µM (inactive); with NCI-H522, 33.1 µM (inactive); in the test with TK-10, > 100 µM (inactive); in the test on KM12 it was > 100 µM (inactive); in the test on HL-60, > 100 µM (inactive). Besides, the GI50 in the test on HOP-92 is > 100 µM (inactive); in the test with HOP-62, > 100 µM (inactive); with OVCAR-5, > 100 µM (inactive); in the test with CAKI-1, 60.8 µM (inactive); in the test on LOX IMVI, > 100 µM (inactive); with HCT-116, > 100 µM (inactive). Further, in the test with RXF 393, the GI50 was 24.8 µM (inactive).
In the case of `Cc1cccc(/N=N/c2c(C)nn(C(=O)CC(=O)Nc3ccccc3)c2C)c1`, the GI50 in the test with UACC-257 is > 10 µM (inactive); with OVCAR-8, > 100 µM (inactive); in the test with T47D, > 100 µM (inactive); with Malme-3M, > 100 µM (inactive); in the test with ACHN, > 100 µM (inactive); in the test with PC-3, > 100 µM (inactive). For the same compound, the GI50 in the test on MOLT-4, in the test with NCI-H522, in the test with TK-10, with KM12, with HL-60 and with HOP-92 was > 100 µM (inactive) in each case. Besides, the GI50 in the test on HOP-62, in the test with OVCAR-5, with CAKI-1, in the test on LOX IMVI, in the test with HCT-116 and in the test on RXF 393 was > 100 µM (inactive) throughout. In the test on SK-OV-3, the GI50 was > 100 µM (inactive).
As for `COCC12CCC(OC)C34C5CC6(O)C(OC)CC(OC(C)=O)(C5C6OC(=O)c5ccccc5)C(C(OC)C13)C4N(C)C2` (centres undefined), the GI50 in the test with UACC-257, in the test with OVCAR-8, with T47D, in the test with Malme-3M, with ACHN and in the test with PC-3 was > 100 µM (inactive) in each case. In addition, the GI50 with MOLT-4 was > 100 µM (inactive); in the test on NCI-H522, > 100 µM (inactive); in the test with TK-10, > 100 µM (inactive); in the test on KM12 it was > 100 µM (inactive); with HL-60, 83.8 µM (inactive); in the test with HOP-92 it was > 100 µM (inactive). The GI50 in the test with HOP-62, with OVCAR-5, with CAKI-1, in the test with LOX IMVI, with HCT-116 and with RXF 393 was > 100 µM (inactive) throughout. The GI50 with SK-OV-3 is 43 µM (inactive).
For the compound `COc1cccc2c1C(=O)c1c(O)c3c(c(O)c1C2=O)CC(O)(C(O)CO)CC3OC1CC2C(OC3COCC(C#N)N32)C(C)O1` (centres undefined), the GI50 in the test on UACC-257, in the test with OVCAR-8, in the test with K562, in the test with T47D, with Malme-3M and in the test with ACHN was < 0.01 µM (active) each time. In addition, the GI50 in the test on PC-3, in the test with MOLT-4, in the test with NCI-H522, with TK-10, in the test on KM12 and in the test on HL-60 was < 0.01 µM (active) throughout. In addition, the GI50 in the test with HOP-92, in the test with HOP-62, with OVCAR-5, in the test with LOX IMVI, in the test with HCT-116 and in the test on RXF 393 was < 0.01 µM (active) throughout. Moreover, in the test with SK-OV-3, the GI50 was < 0.01 µM (active).
Take `C=C(C)C1CCC2(CO)C(O)CC3(C)C(CCC4C5(C)CCC(O)C(C)(C)C5CCC43C)C12` (centres undefined): the GI50 with UACC-257 was 10.5 µM (inactive); with OVCAR-8, 3.85 µM (inactive); in the test on K562 it was 9.77 µM (inactive); in the test with T47D it was 1.06 µM (active); in the test with Malme-3M, 13.6 µM (inactive); in the test on ACHN it was 3.57 µM (inactive). Also, the GI50 in the test with PC-3 is 6.01 µM (inactive); with MOLT-4 it was 27.4 µM (inactive); in the test with NCI-H522, 6.58 µM (inactive); in the test on TK-10, 16.1 µM (inactive); in the test with KM12 it was 6.97 µM (inactive); in the test with HL-60, 25.3 µM (inactive). Further, the GI50 is 11.4 µM (inactive) in the test with HOP-92; 4.16 µM (inactive) with HOP-62; > 100 µM (inactive) in the test with OVCAR-5; 3.73 µM (inactive) in the test on CAKI-1; 9.98 µM (inactive) in the test on LOX IMVI; 22.4 µM (inactive) with HCT-116. Further, the GI50 with RXF 393 was 2.32 µM (inactive).
With `NC(=O)NC(=O)c1cccc(NC(=O)CI)c1`, the GI50 with UACC-257 was < 0.0252 µM (active); in the test with OVCAR-8, < 0.0123 µM (active); with K562, < 0.01 µM (active); in the test with T47D, 1.66 µM (inactive); with ACHN, < 0.017 µM (active); in the test with PC-3 it was 0.0316 µM (active). Besides, the GI50 in the test on MOLT-4 was < 0.01 µM (active); with NCI-H522 it was < 0.01 µM (active); in the test with TK-10, < 0.0146 µM (active); in the test on KM12 it was 0.0391 µM (active); with HL-60, < 0.01 µM (active); in the test with HOP-92 it was < 0.01 µM (active). For the same compound, the 50% growth inhibitory concentration (GI50) with HOP-62 was 0.103 µM (active); with OVCAR-5 it was 0.151 µM (active); in the test with CAKI-1, < 0.01 µM (active); in the test with LOX IMVI, < 0.0132 µM (active); in the test on HCT-116, < 0.01 µM (active); in the test on RXF 393, 0.0513 µM (active). In addition, the 50% growth inhibitory concentration (GI50) with SK-OV-3 was 0.0607 µM (active).
Take `COc1ccc(-c2cc(=O)c3c(O)cc(C)cc3o2)cc1OC`: the GI50 in the test on UACC-257, with K562, in the test with T47D, in the test on Malme-3M, in the test on ACHN and in the test on PC-3 was > 100 µM (inactive) throughout. The GI50 in the test on MOLT-4 was > 100 µM (inactive); in the test on NCI-H522 it was > 100 µM (inactive); in the test with TK-10, > 100 µM (inactive); in the test on KM12, > 100 µM (inactive); in the test on HL-60, > 100 µM (inactive); in the test with HOP-92 it was 22.8 µM (inactive). For the same compound, the GI50 in the test with HOP-62, in the test with OVCAR-5, with LOX IMVI, in the test with HCT-116, in the test on RXF 393 and in the test on SK-OV-3 was > 100 µM (inactive) in each case.
